Reference: patent US8778959B2, “AZA-bridged ring-fused indoles and indolines” (AbbVie Inc., priority 2009, dated 2014)
pEC50: −log10 of the molar value.

Tested on: SK-N-SH human neuroblastoma cells
Experiment: Serum Deprivation/JC-1 Mitochondrial Membrane Potential (MMP) Assay
Format: cell-based
Details: for Emax: percent maximal intensity in JC-1 ratio normalized to peak value for 10 μM dimebolin, read-out: JC-1 max %; for pEC50: serum deprivation ~18 hours, JC-1 ratio normalized to peak value for 10 μM dimebolin, single curve fit to mean of n=2-3
Experimental: SK-N-SH human neuroblastoma cells obtained from American Type Culture Collection (Rockville, Md.) were maintained in the log phase of growth in Minimal Essential Media (MEM), 10% heat inactivated fetal calf serum and 100 units/mL antibiotic-antimycotic (AA). Cells were cultured and maintained in a humidified incubator at 37° C. under 5% CO2 and 95% air. Cells were trypsinized (0.25%) and subcultured every 3 days and used from 15-18 passages. All cell culture supplies were obtained from Invitrogen (Carlsbad, Calif.).
SK-N-SH cells were plated 2-3 days in advance at a concentration of 50,000 cells/well onto collagen coated black-walled 96 well plates (Becton-Dickinson, Bedford, Mass.) in a total volume of 200 μL. On day of experimental treatment, the media containing serum was aspirated from each well and rinsed once with MEM/1% AA without serum. The cells then were incubated overnight in 100 μL of MEM/1% AA (no serum) with and without dimebolin or novel chemical entities overnight for ˜18 hours. The following day, JC-1 dye (5,5′,6,6′-tetrachloro-1,1′,3,3′-tetraethylbenzimidazolcarbocyanide) was diluted 1:10 into MEM media according to the JC-1 Mitochondrial Membrane Potential Assay Kit: (Cayman Chemical Company, Ann Arbor, Mich.) and then 10 μL of the JC-1 dye solution was added to each well. The plates were centrifuged for 5 minutes at 400×g at room temperature followed by 35 minute incubation at 37° C. The plates were washed twice with 200 μL of provided Assay Buffer followed an addition of 100 μL of Assay Buffer to each well. The plates were read with an excitation and emission of 560 nm and 595 nM for red fluorescence and with an excitation and emission of […] and 535 nM for green fluorescence to determine the final JC-1 value taking the red to green fluorescence ratio. This assay is based on change in mitochondrial membrane potential (MMP) using this lipophilic cationic dye, JC-1, by monitoring the changes in the ratio of red to green fluorescence as the MMP depolarizes. This change in MMP reflects the health of the cell with healthy, viable cells have a high JC-1 ratio and high MMP whereas apoptotic, unhealthy cells have a low JC-1 ratio or low MMP.
For the ability of compounds to reverse the stress due to serum deprivation and increase the JC-1 ratio, the percent maximal intensity in JC-1 ratio was normalized to that induced by the peak value for 10 μM dimebolin and plotted against the compound concentration to calculate EC50 values and to control for plate-to-plate variability. Concentration-response data were analyzed using GraphPad Prism (San Diego, Calif.); the EC50 values were derived from a single curve fit to the mean data of n=2-3, in duplicates.
All compounds were dissolved in dimethyl sulfoxide at 10 mM stock solutions and tested at a concentration that the dimethyl sulfoxide levels never exceeded 1%.

Row | SMILES | Emax (Homo sapiens, SK-N-SH, 18 h) | pEC50 (Homo sapiens, SK-N-SH, 18 h) | pEC50
1 | Cc1ccc(/C=C/c2cccc3c4c([nH]c23)CC2CNC4C2)cn1 (centres unmarked) [Example 30, 7-[(E)-2-(6-methylpyridin-3-yl)vinyl]-1,2,3,4,5,6-hexahydro-1,4-methanoazepino[4,3-b]indole] | 118% | 5.25 | –
2 | CN1[C@@H]2CC[C@H]1c1c([nH]c3c(OCc4ccccc4)cccc13)C2 (stereo in doubt) [Example 5, (7R*,10S*)-4-(benzyloxy)-11-methyl-5,6,7,8,9,10-hexahydro-7,10-epiminocyclohepta[b]indole] | 24% | < 4.52 | –
3 | Cc1ccc(-c2cccc3c4c([nH]c23)CC2CCC4N2C)cn1 (centres unmarked) [Example 33, 11-methyl-4-(6-methylpyridin-3-yl)-5,6,7,8,9,10-hexahydro-7,10-epiminocyclohepta[b]indole] | 158% | 5.29 | –
4 | Cc1ccc(CCc2cccc3c4c([nH]c23)CC2CCC4N2C)cn1 (centres unmarked) [Example 2, 11-methyl-4-[2-(6-methylpyridin-3-yl)ethyl]-5,6,7,8,9,10-hexahydro-7,10-epiminocyclohepta[b]indole] | 173% | 5.28 | –
5 | CN1C2CCC1c1c([nH]c3c(-c4ccc(Cl)cc4)cccc13)C2 (centres unmarked) [Example 11, 4-(4-chlorophenyl)-11-methyl-5,6,7,8,9,10-hexahydro-7,10-epiminocyclohepta[b]indole] | 74% | 5.10 | –
6 | CC(=O)N1C2CCC1c1c([nH]c3c(-c4ccc5ncccc5c4)cccc13)C2 (centres unmarked) [Example 23, 11-acetyl-4-quinolin-6-yl-5,6,7,8,9,10-hexahydro-7,10-epiminocyclohepta[b]indole] | 209% | 5.21 | –
7 | c1ccc2ncc(-c3cccc4c5c([nH]c34)CC3CCC5N3)cc2c1 (centres unmarked) [Example 32, 4-(quinolin-3-yl)-5,6,7,8,9,10-hexahydro-7,10-epiminocyclohepta[b]indole] | 174% | 5.59 | –
8 | COC(=O)N1C2CCC1c1c([nH]c3c(-c4cnc5ccccc5c4)cccc13)C2 (centres unmarked) [Example 36, methyl 4-(quinolin-3-yl)-5,6,7,8,9,10-hexahydro-7,10-epiminocyclohepta[b]indole-11-carboxylate] | 140% | 5.95 | –
9 | COC(=O)N1C2CCC1c1c([nH]c3c(/C=C/c4ccc(C)nc4)cccc13)C2 (centres unmarked) [Example 19, methyl 4-[(E)-2-(6-methylpyridin-3-yl)vinyl]-5,6,7,8,9,10-hexahydro-7,10-epiminocyclohepta[b]indole-11-carboxylate] | 178% | 5.27 | –
10 | Cc1ccc(/C=C/c2cccc3c4c([nH]c23)C[C@H]2CC[C@@H]4N2C)cn1 (stereo in doubt) [Example 15, (−)-(7R*,10S*)-11-methyl-4-[(E)-2-(6-methylpyridin-3-yl)vinyl]-5,6,7,8,9,10-hexahydro-7,10-epiminocyclohepta[b]indole] | 160% | 5.52 | –
11 | CN1[C@H]2CC[C@@H]1c1c([nH]c3c(OCc4ccccc4)cccc13)C2 (stereo in doubt) [Example 6, (7S*,10R*)-4-(benzyloxy)-11-methyl-5,6,7,8,9,10-hexahydro-7,10-epiminocyclohepta[b]indole] | 55% | 5.34 | –
12 | Clc1ccc(-c2ccc(-c3cccc4c5c([nH]c34)CC3CCC5N3)cn2)cn1 (centres unmarked) [Example 28, 4-(6′-chloro-2,3′-bipyridin-5-yl)-5,6,7,8,9,10-hexahydro-7,10-epiminocyclohepta[b]indole] | 118% | 5.26 | –
13 | Cc1ccc(-c2cccc3c4c([nH]c23)CC2CNC4C2)cn1 (centres unmarked) [Example 37, 7-(6-methylpyridin-3-yl)-1,2,3,4,5,6-hexahydro-1,4-methanoazepino[4,3-b]indole] | 131% | 5.13 | –
14 | Cc1ccc(/C=C/c2cccc3c4c([nH]c23)C[C@H]2CC[C@@H]4N2)cn1 (single isomer, unassigned) [Example 25] | 173% | 5.20 | 5.22
15 | COC(=O)N1C2CCC1c1c([nH]c3c(-c4ccc5ncccc5c4)cccc13)C2 (centres unmarked) [Example 22, methyl 4-quinolin-6-yl-5,6,7,8,9,10-hexahydro-7,10-epiminocyclohepta[b]indole-11-carboxylate] | 204% | 5.19 | –
16 | Cc1ccc(C#Cc2cccc3c4c([nH]c23)C[C@@H]2CC[C@H]4N2C)cn1 (stereo in doubt) [Example 16, (+)-(7S*,10R*)-11-methyl-4-[(6-methylpyridin-3-yl)ethynyl]-5,6,7,8,9,10-hexahydro-7,10-epiminocyclohepta[b]indole] | 193% | 5.29 | –
17 | c1cc(-c2ccncc2)c2[nH]c3c(c2c1)C1CCC(C3)N1 (centres unmarked) [Example 31, 4-(pyridin-4-yl)-5,6,7,8,9,10-hexahydro-7,10-epiminocyclohepta[b]indole] | 22.3% | < 4.50 | –
18 | Cc1ccc(/C=C/c2cc(F)cc3c4c([nH]c23)CC2CCC4N2C)cn1 (centres unmarked) [Example 12, 2-fluoro-11-methyl-4-[(E)-2-(6-methylpyridin-3-yl)vinyl]-5,6,7,8,9,10-hexahydro-7,10-epiminocyclohepta[b]indole] | 200% | 5.11 | –
19 | Cc1ccc(/C=C/c2cccc3c4c([nH]c23)CC2CCC4N2)cn1 (centres unmarked) [Example 13, 4-[(E)-2-(6-methylpyridin-3-yl)vinyl]-5,6,7,8,9,10-hexahydro-7,10-epiminocyclohepta[b]indole] | 164% | 5.34 | –
20 | c1ccc(COc2cccc3c4c([nH]c23)C[C@@H]2CCC[C@H]4N2)cc1 (stereo in doubt) [Example 10, (7S*,11R*)-4-(benzyloxy)-6,7,8,9,10,11-hexahydro-5H-7,11-epiminocycloocta[b]indole] | 128% | 5.32 | –
21 | Cc1ccc(/C=C/c2cccc3c4c(n(C)c23)CC2CCC4N2)cn1 (centres unmarked) [Example 24, 5-methyl-4-[(E)-2-(6-methylpyridin-3-yl)vinyl]-5,6,7,8,9,10-hexahydro-7,10-epiminocyclohepta[b]indole] | 217% | 5.41 | –
22 | Cc1ccc(/C=C/c2cccc3c4c([nH]c23)C[C@@H]2CC[C@H]4N2C)cn1 (stereo in doubt) [Example 14, (+)-(7S*,10R*)-11-methyl-4-[(E)-2-(6-methylpyridin-3-yl)vinyl]-5,6,7,8,9,10-hexahydro-7,10-epiminocyclohepta[b]indole] | 162% | 5.36 | –
23 | Cc1ccc(C#Cc2cccc3c4c([nH]c23)CC2CNC4C2)cn1 (centres unmarked) [Example 38, 7-[(6-methylpyridin-3-yl)ethynyl]-1,2,3,4,5,6-hexahydro-1,4-methanoazepino[4,3-b]indole] | 120% | 5.23 | –
24 | c1cncc(-c2cccc3c4c([nH]c23)CC2CCC4N2)c1 (centres unmarked) [Example 35, 4-(pyridin-3-yl)-5,6,7,8,9,10-hexahydro-7,10-epiminocyclohepta[b]indole] | 87.2% | 4.96 | –
25 | Cc1ccc(C#Cc2cccc3c4c([nH]c23)CC2CCC4N2C)cn1 (centres unmarked) [Example 3, 11-methyl-4-[(6-methylpyridin-3-yl)ethynyl]-5,6,7,8,9,10-hexahydro-7,10-epiminocyclohepta[b]indole] | 244% | 5.21 | –
26 | CC(=O)N1C2CCC1c1c([nH]c3c(-c4ccc(Cl)nc4)cccc13)C2 (centres unmarked) [Example 29, 1-[4-(6-chloropyridin-3-yl)-5,6,7,8,9,10-hexahydro-7,10-epiminocyclohepta[b]indol-11-yl]ethanone] | 114% | 5.27 | –
